This note sets out measurements from patent publication US10898540B2, “Peptide having effects of increasing telomerase activity and extending telomere, and composition containing same” (GEMVAX & KAEL CO., LTD., priority 2016, dated 2021).

One test concerns telomerase. Description: Telomerase activity (TeloTAGGG telomerase PCR ELISA, RTA) in brain tissue of 3xTg-AD mice after subcutaneous administration. Type of test: in vivo, mouse. Particulars: for increase of telomerase activity compared with saline-administered group (Group 1): s.c. three times a week for 2 months, whole brain tissue at age 15 months. From the text:
(§1) To test the PEP1 therapeutic effect on Alzheimer's disease, Alzheimer transgenic mice (3×Tg-AD) were purchased from Jackson Laboratory.
(§2) To investigate the effect of PEP1 according to concentration after breeding, experimental animals were divided and then administered experimental materials as follows. As a positive control material, donepezil was used, the experimental animals were divided into five groups, and each group included 10 mice. Administered materials and doses per group are as follows. • Group 1: Saline • Group 2: 0.01 mg/kg ofPEP1 • Group 3: 0.1 mg/kg of PEP1 • Group 4: 1 mg/kg of PEP1 • Group 5: 1 mg/kg of donepezil
PEP1, saline and donepezil were subcutaneously injected at each concentration three times a week for 2 months from the 12th month, one month later (at the age of 15 months), the mice (10 mice per group) were anesthetized, and reperfusion was carried out through the heart of each mouse using 0.9% saline to remove blood. Afterward, the brain was extracted, and separated into the hippocampus and the whole brain area, thereby obtaining brain tissue, and the tissue was rapidly frozen using liquid nitrogen.
To investigate PEP1-induced telomerase activity, TeloTAGGG telomerase PCR ELISAPLUS (Cat #12 013 789 001, Roche Boehringer-Mannheim, IN, USA) was used, the entire brain tissues prepared according to the method of Example 2-1 were pulverized, 200 μl of an ice-cold lysis buffer was added to […] of the tissue, incubated on ice for 30 minutes, and centrifuged at 16,000×g for 20 minutes to isolate 175 μl of a protein. 10 μg of the protein was quantified and mixed with a reaction mixture and an internal standard, followed by PCR (see FIG. 4). Hybridization was carried out, a sample was added to a specially-coated MP module to perform a reaction, and then absorbance was measured at 450 or 690 nm using an ELISA reader. Relative telomerase activities (RTAs) were calculated using a calculation formula (see FIG. 3).
On the technique in general: In an ELISA, binding on a coated surface is turned into a signal by an enzyme label.

The subject of the next test is telomere. In words: Telomere length (TeloTAGGG telomere length assay, Southern blot) in brain tissue of 3xTg-AD mice after subcutaneous administration. Type of test: in vivo, mouse. Particulars: 3xTg-AD mice, 0.01, 0.1 and 1 mg/kg s.c. three times a week for 2 months, whole brain tissue, FIG. 2.
Excerpt: as §1, §2
PEP1, saline and donepezil were subcutaneously injected at each concentration three times a week for 2 months from the 12th month, one month later (at the age of 15 months), the mice (10 mice per group) were anesthetized, and reperfusion was carried out through the heart of each mouse using 0.9% saline to remove blood. Afterward, the brain was extracted, and separated into the hippocampus and the whole brain area, thereby obtaining brain tissue, and the tissue was rapidly frozen using liquid nitrogen. […]

As for “EARPALLTSRLRFIPK (hTERT derived peptide fragment) [PEP1, hTERT-derived peptide consisting of 16 amino acids, telomerase location [611-626], made by Fmoc solid phase synthesis]”, the “increase of telomerase activity compared with saline-administered group (Group 1)” value was found to be 266% in the test with telomerase (0.1 mg/kg (Group 3)) and 370% in the test with telomerase (Group 4 (dose printed as 'mg/kg'; Group 4 = 1 mg/kg)). Besides, the “telomerase activity compared with donepezil-administered group (Group 5)” value in the test on telomerase (Group 4 vs donepezil Group 5, s.c. three times a week for 2 months, FIG. 1) is listed as “statistically significant increase”. In addition, in the test with telomere, the telomere length entry was “increased according to PEP1 administration concentration”.
